The record followed here is ChEMBL document CHEMBL5365420, “Kinetics, Thermodynamics, and Structural Effects of Quinoline-2-Carboxylates, Zinc-Binding Inhibitors of New Delhi Metallo-β-lactamase-1 Re-sensitizing Multidrug-Resistant Bacteria for Carbapenems” (J Med Chem, 2023).

Each structure is given as a SMILES string. Bounds are passed on as bounds.

A word on the IC50: it is the midpoint of a concentration-inhibition curve. Read a high IC50 as lower potency. A word on the MIC: it is the least concentration at which growth counts as inhibited. A word on the inhibition: it is the change of the read-out against control, counted positive when it falls.

Experiment [1] is described as follows: Inhibition of VIM-2 (unknown origin) incubated for 15 mins by absorbance based microplate reader analysis. More on the design: species or system Bacteria.
For experiment [2], the system named is Klebsiella pneumoniae. Nature of the experiment: Antibacterial activity against clinical isolate Klebsiella pneumoniae 50/11 expressing blaNDM-1 co-expressing blaTEM-1/blaSHV-28/blaTEM-1/blaCTX-M-15 and blaOXA-1 assessed as meropenem MIC at 36.44 uM measured after 20 hrs by broth microdilution assay (reference value: 12 mg/L). The format is functional. On the technique in general: Broth dilution looks for growth in wells or tubes with falling amounts of substance.

Experiment [3] addresses Histone deacetylase 1 (Homo sapiens) (UniProt Q13547). Nature of the experiment: Inhibition of C-terminal 6His/FLAG-tagged human recombinant full-length HDAC1 (1 to 482(end) residues) at 10 uM using Boc-Lys-(Ac)-AMC as substrate incubated for 10 mins followed by substrate addition measured after 1 hr by fluorescence based analysis relative to control. The settings on record: time 70.0 min.

Experiment [4] relates to Escherichia coli. In words: Antibacterial activity against clinical isolate Escherichia coli K12 J53-ST10 699/15 expressing blaNDM-1 assessed as meropenem MIC at 36.44 uM measured after 20 hrs by broth microdilution assay (reference value: 12 mg/L). It is filed as functional.
The target in experiment [5] is Metallo-beta-lactamase type 2 (Bacteria) (UniProt C7C422).
Sequence of Metallo-beta-lactamase type 2 (Bacteria) (C7C422 whole entry): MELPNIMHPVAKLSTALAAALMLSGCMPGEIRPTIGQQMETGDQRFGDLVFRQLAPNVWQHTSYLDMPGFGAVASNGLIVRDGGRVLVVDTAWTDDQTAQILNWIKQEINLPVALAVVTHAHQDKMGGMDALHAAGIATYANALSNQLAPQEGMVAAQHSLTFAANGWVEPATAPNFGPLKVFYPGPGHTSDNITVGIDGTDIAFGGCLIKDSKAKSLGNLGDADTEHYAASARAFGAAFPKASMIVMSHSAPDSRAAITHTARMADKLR
Description: Binding affinity to C-terminal 6His-tagged full length truncated NDM-1 (unknown origin) expressed in Escherichia coli BL21-DE3 assessed as change in enthalpy in presence of zinc sulfate by isothermal titration calorimetric analysis
Experiment [6] deals with Escherichia coli. In words: Antibacterial activity against clinical isolate Escherichia coli K12 J53-ST10 684/18 expressing blaNDM-1 co-expressing blaCMY-2 and blaOXA-10 assessed as meropenem MIC at 36.44 uM measured after 20 hrs by broth microdilution assay (reference value: 12 mg/L). It is filed as functional.
The target of experiment [7] is Metallo-beta-lactamase type 2 (Bacteria) (UniProt C7C422). This is another data set of the same source.
Description: Binding affinity to C-terminal 6His-tagged full length truncated NDM-1 (unknown origin) expressed in Escherichia coli BL21-DE3 assessed as change in enthalpy by isothermal titration calorimetric analysis
The test system of experiment [8] is Escherichia coli. In words: Antibacterial activity against clinical isolate Escherichia coli K12 J53-ST10 699/15 expressing blaNDM-1 assessed as meropenem MIC at 72.88 uM measured after 20 hrs by broth microdilution assay (reference value: 24 mg/L). It is filed as functional.
The subject of experiment [9] is Escherichia coli. In words: Antibacterial activity against clinical isolate Escherichia coli K12 J53-ST10 618/15 expressing blaNDM-1 assessed as meropenem MIC at 36.44 uM measured after 20 hrs by broth microdilution assay (reference value: 12 mg/L). It is filed as functional.
In experiment [10] the target is Metallo-beta-lactamase type 2 (Bacteria, UniProt C7C422).
Sequence of Metallo-beta-lactamase type 2 (C7C422 whole entry): as above
Description: Inhibition of C-terminal 6His-tagged full length NDM-1 (unknown origin) expressed in Escherichia coli BL21-DE3 using nitrocefin as substrate incubated for 15 mins followed by substrate addition by absorbance based microplate reader analysis
Experiment [11] in a line: Inhibition of GIM1 (unknown origin) incubated for 15 mins by absorbance based microplate reader analysis. Further details: species or system Bacteria.
For experiment [12], the system named is Klebsiella pneumoniae. In words: Antibacterial activity against clinical isolate Klebsiella pneumoniae ST1493/10 expressing blaNDM-1 co-expressing blaCMY-2like/blaTEM-1/blaCTX-M-15/blaSHV-28/blaOXA-1 and blaOXA-9 assessed as meropenem MIC at 36.44 uM measured after 20 hrs by broth microdilution assay (reference value: 12 mg/L). It is filed as functional.

Sequence of Histone deacetylase 1 (Homo sapiens) (Q13547 whole entry): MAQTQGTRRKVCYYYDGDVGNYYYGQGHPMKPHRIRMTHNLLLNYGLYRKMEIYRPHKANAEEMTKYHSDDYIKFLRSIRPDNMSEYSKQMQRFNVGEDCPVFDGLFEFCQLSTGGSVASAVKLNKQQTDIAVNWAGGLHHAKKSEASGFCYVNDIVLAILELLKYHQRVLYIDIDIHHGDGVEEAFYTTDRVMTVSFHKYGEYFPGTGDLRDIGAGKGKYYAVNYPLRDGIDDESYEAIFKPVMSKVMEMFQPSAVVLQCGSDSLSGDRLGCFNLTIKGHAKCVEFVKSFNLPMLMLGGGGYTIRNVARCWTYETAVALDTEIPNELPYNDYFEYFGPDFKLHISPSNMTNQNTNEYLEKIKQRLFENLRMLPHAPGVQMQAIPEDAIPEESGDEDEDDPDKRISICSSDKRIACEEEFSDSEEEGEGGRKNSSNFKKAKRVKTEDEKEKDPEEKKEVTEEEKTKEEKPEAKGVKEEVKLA

Regarding `O=C(O)c1ccc2cccc(NS(=O)(=O)c3ccccn3)c2n1`, the values for the IC50 in experiment [1], in experiment [10] and in [11] were 240 nM, 290 nM and 650 nM, respectively. In addition, the MIC with Klebsiella pneumoniae [2] was at most 0.125 µg/mL; in the experiment on Escherichia coli [4], 0.5 µg/mL; with Escherichia coli [6], at most 0.125 µg/mL; with Escherichia coli [8], at most 0.125 µg/mL; in the experiment on Escherichia coli [9] it was at most 0.125 µg/mL; in the experiment with Klebsiella pneumoniae [12], 2 µg/mL. The inhibition in experiment [3] is under 5%. The deltaH in experiment [5] is -111 kJ/mol; in experiment [7] it was -27.6 kJ/mol.
